One may read the IC50 as the point on the concentration scale where inhibition reaches its midpoint.

The text below walks through data of ChEMBL document CHEMBL6078625 (J Med Chem, 2024).

Assay [1] addresses Epithelial discoidin domain-containing receptor 1 (Homo sapiens, UniProt Q08345). Description: Inhibition of human DDR1 by discoverX kinome scan assay.
Assay [2] concerns the target T1, Discoidin domain-containing receptor 2 (Homo sapiens, UniProt Q16832).
T1 sequence (Q16832 whole entry): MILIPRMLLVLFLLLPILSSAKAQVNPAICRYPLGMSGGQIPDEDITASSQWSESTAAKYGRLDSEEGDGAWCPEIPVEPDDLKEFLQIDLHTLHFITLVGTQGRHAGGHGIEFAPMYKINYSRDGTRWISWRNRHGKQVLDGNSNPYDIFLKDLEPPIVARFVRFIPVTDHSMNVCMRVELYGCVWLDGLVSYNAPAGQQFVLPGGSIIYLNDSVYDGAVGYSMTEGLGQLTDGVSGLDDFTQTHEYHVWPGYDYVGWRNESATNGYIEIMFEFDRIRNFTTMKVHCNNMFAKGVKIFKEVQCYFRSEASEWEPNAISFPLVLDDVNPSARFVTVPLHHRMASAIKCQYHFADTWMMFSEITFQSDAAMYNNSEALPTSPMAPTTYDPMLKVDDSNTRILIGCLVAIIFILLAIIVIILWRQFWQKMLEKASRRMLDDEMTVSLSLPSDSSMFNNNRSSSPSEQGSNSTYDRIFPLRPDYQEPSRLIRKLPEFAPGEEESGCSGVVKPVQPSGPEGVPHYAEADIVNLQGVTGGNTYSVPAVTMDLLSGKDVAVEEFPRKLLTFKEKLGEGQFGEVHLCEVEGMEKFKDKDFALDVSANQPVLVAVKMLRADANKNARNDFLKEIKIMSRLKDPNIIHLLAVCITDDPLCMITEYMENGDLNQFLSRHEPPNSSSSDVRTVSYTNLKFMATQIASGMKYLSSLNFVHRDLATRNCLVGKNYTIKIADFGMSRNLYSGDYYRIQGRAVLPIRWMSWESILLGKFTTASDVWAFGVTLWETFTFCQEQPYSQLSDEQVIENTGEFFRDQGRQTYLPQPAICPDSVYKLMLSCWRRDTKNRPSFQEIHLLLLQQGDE
Description: Inhibition of human DDR2 by discoverX kinome scan assay.

For assay [3], the target named is High affinity nerve growth factor receptor (Homo sapiens, UniProt P04629). Description: Inhibition of human TRKA by discoverX kinome scan assay.
Assay [4] deals with T2, Muscle, skeletal receptor tyrosine-protein kinase (Homo sapiens, UniProt O15146).
T2 sequence (O15146 whole entry): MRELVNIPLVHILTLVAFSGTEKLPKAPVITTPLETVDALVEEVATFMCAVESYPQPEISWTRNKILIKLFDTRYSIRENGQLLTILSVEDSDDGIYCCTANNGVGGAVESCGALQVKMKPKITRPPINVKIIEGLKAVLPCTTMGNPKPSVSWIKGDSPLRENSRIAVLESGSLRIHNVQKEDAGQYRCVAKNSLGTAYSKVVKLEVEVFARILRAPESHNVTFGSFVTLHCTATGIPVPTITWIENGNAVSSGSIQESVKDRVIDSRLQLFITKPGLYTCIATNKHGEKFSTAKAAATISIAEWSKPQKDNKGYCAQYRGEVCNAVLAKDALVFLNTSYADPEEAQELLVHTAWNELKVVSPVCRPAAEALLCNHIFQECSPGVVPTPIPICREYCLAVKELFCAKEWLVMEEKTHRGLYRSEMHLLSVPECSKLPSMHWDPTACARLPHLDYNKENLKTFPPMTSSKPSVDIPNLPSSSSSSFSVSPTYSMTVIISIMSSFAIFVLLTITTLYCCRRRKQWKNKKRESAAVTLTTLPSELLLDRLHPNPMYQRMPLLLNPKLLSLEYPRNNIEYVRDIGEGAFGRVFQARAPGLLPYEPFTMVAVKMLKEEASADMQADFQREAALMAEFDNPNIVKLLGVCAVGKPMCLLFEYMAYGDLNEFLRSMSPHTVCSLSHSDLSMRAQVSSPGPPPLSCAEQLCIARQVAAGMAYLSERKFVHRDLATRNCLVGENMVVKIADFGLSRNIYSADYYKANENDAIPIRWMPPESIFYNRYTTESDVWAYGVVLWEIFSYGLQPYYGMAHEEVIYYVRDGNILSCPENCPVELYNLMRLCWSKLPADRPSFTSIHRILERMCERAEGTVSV
Description: Inhibition of human MUSK by discoverX kinome scan assay.

Assay [5] addresses T3, Receptor-type tyrosine-protein kinase FLT3 (Homo sapiens, UniProt P36888).
T3 sequence (P36888 whole entry): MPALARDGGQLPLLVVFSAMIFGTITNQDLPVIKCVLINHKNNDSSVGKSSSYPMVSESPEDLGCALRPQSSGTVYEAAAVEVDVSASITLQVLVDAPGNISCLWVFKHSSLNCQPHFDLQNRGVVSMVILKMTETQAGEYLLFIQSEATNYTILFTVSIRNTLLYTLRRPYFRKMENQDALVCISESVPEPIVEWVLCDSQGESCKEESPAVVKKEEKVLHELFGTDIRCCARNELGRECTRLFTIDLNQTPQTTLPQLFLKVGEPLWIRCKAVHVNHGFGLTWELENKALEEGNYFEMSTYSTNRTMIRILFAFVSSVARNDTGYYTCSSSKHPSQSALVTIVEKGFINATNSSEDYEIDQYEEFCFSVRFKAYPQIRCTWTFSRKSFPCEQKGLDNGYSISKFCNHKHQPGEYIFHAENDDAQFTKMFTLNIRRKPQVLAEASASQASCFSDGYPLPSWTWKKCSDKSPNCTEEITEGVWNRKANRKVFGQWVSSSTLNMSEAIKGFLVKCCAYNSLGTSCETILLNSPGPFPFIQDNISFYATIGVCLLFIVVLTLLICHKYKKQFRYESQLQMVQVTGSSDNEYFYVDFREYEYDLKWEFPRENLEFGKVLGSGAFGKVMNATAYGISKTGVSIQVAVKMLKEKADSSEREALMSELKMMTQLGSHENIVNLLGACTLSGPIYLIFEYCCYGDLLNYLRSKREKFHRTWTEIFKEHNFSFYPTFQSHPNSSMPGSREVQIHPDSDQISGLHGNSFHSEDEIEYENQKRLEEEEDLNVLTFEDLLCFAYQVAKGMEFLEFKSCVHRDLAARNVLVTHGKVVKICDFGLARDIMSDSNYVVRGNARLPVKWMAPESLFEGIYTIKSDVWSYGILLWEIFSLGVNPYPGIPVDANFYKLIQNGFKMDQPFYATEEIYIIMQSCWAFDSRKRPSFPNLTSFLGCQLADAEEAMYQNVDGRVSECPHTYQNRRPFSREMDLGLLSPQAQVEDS
Description: Inhibition of wild type FLT3 (unknown origin).

Assay [6] has as its system MOLM-13. Description: Antiproliferative activity against human MOLM-13 cells. In kind it is functional, cell-based.
The test system of assay [7] is MV4-11. Description: Antiproliferative activity against human MV4-11 cells. In kind it is functional, cell-based.
Assay [8] deals with BaF3. Description: Antiproliferative activity against mouse BaF3 cells harbouring FLT3-ITD-F691L mutant. Format: functional, cell-based.
The subject of assay [9] is BaF3. Description: Antiproliferative activity against mouse BaF3 cells harbouring FLT3-ITD-N676D mutant. In kind it is functional, cell-based.
The subject of assay [10] is BaF3. Description: Antiproliferative activity against mouse BaF3 cells harbouring FLT3-ITD-D835V mutant. In kind it is functional, cell-based.

Each structure is given as a SMILES string.

Sequence of High affinity nerve growth factor receptor (P04629 whole entry): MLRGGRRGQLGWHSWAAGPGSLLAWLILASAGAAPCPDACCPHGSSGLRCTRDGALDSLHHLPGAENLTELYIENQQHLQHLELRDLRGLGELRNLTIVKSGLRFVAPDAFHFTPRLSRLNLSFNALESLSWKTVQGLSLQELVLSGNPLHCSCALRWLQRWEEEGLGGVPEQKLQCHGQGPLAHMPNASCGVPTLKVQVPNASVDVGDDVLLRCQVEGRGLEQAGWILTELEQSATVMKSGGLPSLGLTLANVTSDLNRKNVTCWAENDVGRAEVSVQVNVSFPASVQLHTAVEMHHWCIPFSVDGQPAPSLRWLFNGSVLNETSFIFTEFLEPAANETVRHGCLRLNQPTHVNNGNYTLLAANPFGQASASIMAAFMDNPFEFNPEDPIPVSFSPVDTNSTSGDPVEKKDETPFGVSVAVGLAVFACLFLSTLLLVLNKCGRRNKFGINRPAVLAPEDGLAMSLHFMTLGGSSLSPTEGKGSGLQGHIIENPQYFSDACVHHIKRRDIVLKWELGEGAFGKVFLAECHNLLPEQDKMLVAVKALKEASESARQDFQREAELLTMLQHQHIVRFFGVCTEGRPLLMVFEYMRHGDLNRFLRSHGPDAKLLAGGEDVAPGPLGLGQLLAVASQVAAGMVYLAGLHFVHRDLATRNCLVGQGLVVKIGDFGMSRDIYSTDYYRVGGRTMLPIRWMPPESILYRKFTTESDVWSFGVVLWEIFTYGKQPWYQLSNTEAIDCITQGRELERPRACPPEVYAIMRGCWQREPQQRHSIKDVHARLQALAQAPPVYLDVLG
Sequence of Epithelial discoidin domain-containing receptor 1 (Q08345 whole entry, the tested form may be a part): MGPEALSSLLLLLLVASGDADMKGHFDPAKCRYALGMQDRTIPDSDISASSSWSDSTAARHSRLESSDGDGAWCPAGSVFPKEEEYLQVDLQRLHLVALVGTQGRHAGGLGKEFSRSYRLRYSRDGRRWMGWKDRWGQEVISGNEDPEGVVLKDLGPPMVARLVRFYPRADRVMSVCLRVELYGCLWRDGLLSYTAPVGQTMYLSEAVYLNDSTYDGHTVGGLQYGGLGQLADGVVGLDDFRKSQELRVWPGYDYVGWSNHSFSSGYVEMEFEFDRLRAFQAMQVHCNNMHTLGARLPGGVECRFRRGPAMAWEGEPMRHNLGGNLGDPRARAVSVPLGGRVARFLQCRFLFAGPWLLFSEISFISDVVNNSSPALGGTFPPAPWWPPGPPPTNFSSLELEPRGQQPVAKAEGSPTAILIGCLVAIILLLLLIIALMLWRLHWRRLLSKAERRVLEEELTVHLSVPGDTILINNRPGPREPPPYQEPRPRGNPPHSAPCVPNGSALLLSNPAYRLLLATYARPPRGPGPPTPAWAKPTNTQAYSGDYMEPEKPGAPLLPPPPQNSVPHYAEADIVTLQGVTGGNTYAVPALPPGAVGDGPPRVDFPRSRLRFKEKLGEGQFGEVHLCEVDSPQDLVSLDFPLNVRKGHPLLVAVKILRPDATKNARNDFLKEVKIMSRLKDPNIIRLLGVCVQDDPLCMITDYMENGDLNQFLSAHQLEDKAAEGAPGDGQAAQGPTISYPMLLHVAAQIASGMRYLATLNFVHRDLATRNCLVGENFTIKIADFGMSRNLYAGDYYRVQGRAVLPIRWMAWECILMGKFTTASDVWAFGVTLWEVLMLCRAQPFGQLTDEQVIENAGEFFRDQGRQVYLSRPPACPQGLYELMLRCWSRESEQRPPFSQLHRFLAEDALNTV

For the compound `Cc1cc(-c2ccc(NC(=O)Nc3ccc(C(C)(C)C)cc3)cc2)c2c(N)noc2n1`, the IC50 in [1] is 55.4 nM; in assay [2] it was 96.7 nM; in assay [3], 113 nM; in assay [4], over 1000 nM.

Turning to `COc1cccc(CC(=O)Nc2ccc(-c3cc(C)nc4nocc34)cc2)c1`, the IC50 in assay [5] worked out at 103 nM; in assay [6], 140 nM; in assay [7], 58 nM; in assay [8], 3570 nM; in assay [9], 1160 nM; in assay [10], 8420 nM.
